Results: PubChem BioAssay (NCI)
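Tested at 5 concentrations; 48 h exposure; 96-well plates; endpoints linearly interpolated, else capped at highest concentration. GI50 = concentration required for 50% inhibition of growth. At the TGI there is no net growth.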

How the values were obtained:
Assay in all cases: NCI-60 cell line screen, 48 h; in the data active = GI50 below about 0.43 µM; inactive = the rest
[1] = system: OVCAR-8 ovarian
[2] = system: MDA-MB-231 breast
[3] = system: DU-145 prostate
[4] = system: SK-MEL-2 melanoma
[5] = system: T-47D breast
[6] = system: SNB-19 CNS
[7] = system: SK-MEL-5 melanoma
[8] = system: U251 CNS
[9] = system: 786-0 renal
[10] = system: K-562 leukemia
[11] = system: SF-268 CNS
[12] = system: COLO 205 colon
[13] = system: LOX IMVI melanoma
[14] = system: TK-10 renal
[15] = system: SK-OV-3 ovarian
[16] = system: RPMI-8226 leukemia
[17] = system: OVCAR-4 ovarian
[18] = system: HOP-62 NSCLC
[19] = system: RXF 393 renal
[20] = system: IGROV1 ovarian
[21] = system: HCT-15 colon
[22] = system: SNB-75 CNS
[23] = system: HT29 colon
[24] = system: HCT-116 colon
[25] = system: KM12 colon
[26] = system: OVCAR-3 ovarian
[27] = system: UACC-257 melanoma
[28] = system: OVCAR-5 ovarian
[29] = system: SN12C renal
[30] = system: BT-549 breast
[31] = system: CCRF-CEM leukemia
[32] = system: UO-31 renal
[33] = system: HCC-2998 colon
[34] = system: EKVX NSCLC
[35] = system: M14 melanoma
[36] = system: HS 578T breast
[37] = system: NCI/ADR-RES ovarian
[38] = system: NCI-H226 lung
[39] = system: UACC-62 melanoma
[40] = system: PC-3 prostate
[41] = system: SW-620 colon
[42] = system: ACHN renal
[43] = system: NCI-H522 lung
[44] = system: MOLT-4 leukemia
[45] = system: SF-539 CNS
[46] = system: A549 NSCLC
[47] = system: NCI-H460 lung
[48] = system: MDA-MB-435
[49] = system: HOP-92 NSCLC
[50] = system: CAKI-1 renal
[51] = system: NCI-H23 lung
[52] = system: MCF7 breast
[53] = system: SK-MEL-28 melanoma
[54] = system: SF-295 CNS
[55] = system: A498 renal
[56] = system: HL-60(TB) leukemia
[57] = system: MALME-3M melanoma

Cc1ccc(Cl)cc1Nc1nc(C(F)(F)F)ccc1C(N)=O
inactive: GI50 [1] 29.4 µM | GI50 [2] 2.47 µM | GI50 [3] 9.77 µM | GI50 [4] 20.4 µM | GI50 [5] 3.54 µM | GI50 [6] 11.3 µM | GI50 [7] 1.92 µM | GI50 [8] 4.09 µM | GI50 [9] 3.28 µM | GI50 [10] 21.3 µM | GI50 [11] 6.46 µM | GI50 [12] 5.48 µM | GI50 [13] 2.23 µM | GI50 [14] 4.31 µM | GI50 [15] 16.9 µM | GI50 [16] 18.6 µM | GI50 [17] 22.3 µM | GI50 [18] 3.5 µM | GI50 [19] 10.5 µM | GI50 [20] 5.19 µM | GI50 [21] 5.73 µM | GI50 [22] 8.65 µM | GI50 [23] 4.02 µM | GI50 [24] 5.91 µM | GI50 [25] 5.09 µM | GI50 [26] 13.2 µM | GI50 [27] 24.8 µM | GI50 [28] 8.48 µM | GI50 [29] 5.5 µM | GI50 [30] 4.53 µM | GI50 [31] 15.1 µM | GI50 [32] 5.37 µM | GI50 [33] 6.1 µM | GI50 [34] 4.16 µM | GI50 [35] 10.7 µM | GI50 [36] 0.809 µM | GI50 [37] 5.7 µM | GI50 [38] 1.45 µM | GI50 [39] 6.56 µM | GI50 [40] 14 µM | GI50 [41] 6.98 µM | GI50 [42] 3.67 µM | GI50 [43] 4.63 µM | GI50 [44] 7.54 µM | GI50 [45] 4.46 µM | GI50 [46] 12.8 µM | GI50 [47] 3.28 µM | GI50 [48] 12 µM | GI50 [49] 15.1 µM | GI50 [50] 3.5 µM | GI50 [51] 2.76 µM | GI50 [52] 3.92 µM | GI50 [53] 43.8 µM | GI50 [54] 11.9 µM
35.7 µM: TGI [35]
22.8 µM: TGI [24]
3.94 µM: TGI [36]
15.9 µM: TGI [51]
34 µM: TGI [19]
18.5 µM: TGI [14]
59.2 µM: TGI [20]
91.8 µM: TGI [29]
26.1 µM: TGI [8]
60.4 µM: TGI [48]
46.8 µM: TGI [16] | TGI [34]
15.3 µM: TGI [42]
26.6 µM: TGI [39]
> 100 µM: TGI [1] | TGI [3] | TGI [4] | TGI [5] | TGI [6] | TGI [11] | TGI [15] | TGI [17] | TGI [21] | TGI [22] | TGI [23] | TGI [32] | TGI [41] | TGI [46] | TGI [47] | TGI [52] | TGI [53]
83.5 µM: TGI [27]
23.9 µM: TGI [50]
28.6 µM: TGI [30]
71.2 µM: TGI [12]
55.7 µM: TGI [26]
48.4 µM: TGI [44]
49.4 µM: TGI [28]
28 µM: TGI [45]
40.7 µM: TGI [49]
11.8 µM: TGI [2]
17.4 µM: TGI [18]
71.1 µM: TGI [40]
47.8 µM: TGI [25]
46.1 µM: TGI [10]
11.4 µM: TGI [13]
6.6 µM: TGI [7]
13.6 µM: TGI [9]
9.81 µM: TGI [38]
36.2 µM: TGI [31]
60.7 µM: TGI [43]
20.3 µM: TGI [33]
31.2 µM: TGI [37]
41.2 µM: TGI [54]

COC(=O)c1oc2c(C(C)=O)c(OCCN3CCOCC3)c(OC)cc2c1C
> 100 µM: TGI [1] | TGI [55] | TGI [2] | TGI [4] | TGI [5] | TGI [6] | TGI [56] | TGI [7] | TGI [8] | TGI [9] | TGI [10] | TGI [11] | TGI [12] | TGI [13] | TGI [14] | TGI [15] | TGI [16] | TGI [17] | TGI [18] | TGI [20] | TGI [21] | TGI [22] | TGI [23] | TGI [24] | TGI [26] | TGI [27] | TGI [28] | TGI [29] | TGI [30] | TGI [31] | TGI [32] | TGI [33] | TGI [34] | TGI [35] | TGI [36] | TGI [37] | TGI [38] | TGI [39] | TGI [40] | TGI [41] | TGI [42] | TGI [43] | TGI [44] | TGI [45] | TGI [46] | TGI [47] | TGI [48] | TGI [49] | TGI [50] | TGI [51] | TGI [52] | TGI [57] | TGI [53] | TGI [54]
inactive: GI50 [1] > 100 µM | GI50 [55] > 100 µM | GI50 [2] > 100 µM | GI50 [4] > 100 µM | GI50 [5] > 100 µM | GI50 [6] > 100 µM | GI50 [56] > 100 µM | GI50 [7] > 100 µM | GI50 [8] > 100 µM | GI50 [9] > 100 µM | GI50 [10] > 100 µM | GI50 [11] > 100 µM | GI50 [12] > 100 µM | GI50 [13] > 100 µM | GI50 [14] > 100 µM | GI50 [15] > 100 µM | GI50 [16] > 100 µM | GI50 [17] > 100 µM | GI50 [18] > 100 µM | GI50 [20] > 100 µM | GI50 [21] > 100 µM | GI50 [22] > 100 µM | GI50 [23] > 100 µM | GI50 [24] > 100 µM | GI50 [26] > 100 µM | GI50 [27] > 100 µM | GI50 [28] > 100 µM | GI50 [29] > 100 µM | GI50 [30] > 100 µM | GI50 [31] > 100 µM | GI50 [32] > 100 µM | GI50 [33] > 100 µM | GI50 [34] > 100 µM | GI50 [35] > 100 µM | GI50 [36] > 100 µM | GI50 [37] > 100 µM | GI50 [38] > 100 µM | GI50 [39] > 100 µM | GI50 [40] > 100 µM | GI50 [41] > 100 µM | GI50 [42] > 100 µM | GI50 [43] > 100 µM | GI50 [44] > 100 µM | GI50 [45] > 100 µM | GI50 [46] > 100 µM | GI50 [47] > 100 µM | GI50 [48] > 100 µM | GI50 [49] > 100 µM | GI50 [50] > 100 µM | GI50 [51] > 100 µM | GI50 [52] > 100 µM | GI50 [57] > 100 µM | GI50 [53] > 100 µM | GI50 [54] > 100 µM
